Test system: pea (cultivar 'Mozart')
Assay: Growth chamber pot test of Rhizobium strains on pea, biomass and nitrogen in plant tissue (Experiment 1)
Type: in vivo
Parameters: Total Nitrogen per Shoot: unit not given here
Settings: 35 days; for % Nitrogen: shoot tissue
Protocol: • 1) To evaluate eight previously untested Rhizobium strains for their ability to enhance biomass accumulation and nitrogen in legume plant tissue. These eight strains are evaluated against known strains PBI #108 and PBI#101. Note that PBI #108 is a commercial strain of Rhizobium leguminosarum that can be obtained from the Australian Legume Inoculants Research Unit of the New South Wales Agriculture Horticultural Research & Advisory Station, Locked Bag 26, Gosford, New South Wales, 2250, Australia under the deposit number ALIRU SU303. PBI #101 is a strain available from the USDA under deposit number 2449. Experimental Design: Factorial Design: 2 Soil Types (Aberdeen soil, Kyle soil) • 1 Pea seed Cultivar (‘Mozart’) • 12 Seed Treatments (Uninoculated, Nitrogen, Eight untested strains, PBI #108, PBI #101) • Randomized Block. Strain Selection Criteria: • 1) Collected field soil was sifted through a ¼ inch screen to remove any lumps of soil, roots, other plant material, sticks, etc. The soil was then spread out to dry for a period of one week and then placed into plastic bins until needed. • 2) Pots (4-½ inch×5 inch deep) were then labeled according to treatment. A sterile square pieces of spun polyester (black landscape fabric) was then placed into the bottom of each of the pots to prevent the sand/soil mixture from draining out through the pots drainage holes. • 3) A 50% mixture of Kyle soil/silica sand or 50% Aberdeen soil/silica sand (Unimum Industries—industrial quartz) was used as a potting media. • 4) After filling each pot with the sand/soil mixture each pot was placed into a large plastic Ziploc™ bag. • 5) One day before seeding each pot was watered with 150 ml of tap water (non-sterile) and the bags were sealed until seeded. • 6) On the day of seeding 5.5 kg of pea seed—cultivar ‘Mozart’—was divided up into eleven 500 gram amounts and surfaced sterilized via the following method: • a) Place 500 grams of seed into a 2 liter glass Erlenmeyer flask • b) Cover the seeds with 95% Ethanol, let stand 60 seconds then drain. • c) Add a fresh preparation of a 50% bleach solution (1000 mls into 1000 mls water-2.6% NaOCl active), add seed, shake and let stand 5 minutes, then drain. • d) Rinse with 4 changes of R.O. water (non-sterile) followed by one rinse with sterile R.O. water. • 7) After surface sterilization each 500 g amount of seed was spread into an aluminum foil pan lined with sterile paper towel and blotted dry and then transferred into clean large Ziploc™ bags. • 8) After inoculation uninoculated and inoculated pea seeds were planted. Five pea seeds were placed into each pot 2 inches below the surface. Spoons and forceps used to plant the seed were washed and dried thoroughly between treatments. 9) The bags were then sealed and placed into a growth chamber that was set for the following conditions: [table] • 10) Each pot was placed into a plastic bin in a randomized block design (two bins contained one pot of each of the 24 treatments). A total of 20 bins were used to hold all of the treatments. Three times a week (Monday's, Wednesdays and Fridays) each plastic bin was moved one bin position to the right. This was done to ensure differences in light intensity/quality or temperature were consistent for each of the treatments inside the growth chamber. • 11) Bags were kept fully closed until 50% emergence was observed, then fully opened. • 12) Plants were checked daily and watered as required using tap water. • 13) After 35 days plants were photographed (digital image file) and then harvested.

Nitrogen
Shoot dry weights (mean) (Aberdeen soil): 0.45 grams per shoot | Total Nitrogen per Shoot (Aberdeen soil): 0.0144 | % Nitrogen (Aberdeen soil): 3.18% | Shoot dry weights (mean) (Kyle soil): 0.46 grams per shoot | Total Nitrogen per Shoot (Kyle soil): 0.0131 | Visual Assessment of Plant Color, Ranking Based on Color (Kyle soil, ranked from darkest green (1) to yellow/green (12)): 1 | % Nitrogen (Kyle soil): 2.80%
